Source: publication PMC6383948, “Evaluation of a class of isatinoids identified from a high-throughput screen of human kinase inhibitors as anti-Sleeping Sickness agents” (PLoS Neglected Tropical Diseases, 2019)
Read-outs that look alike come from different tables or passages of the source.

Legend:
[1] = set-up: method as in PMID 25340575; conditions: data from original HTS; ref [13]; cited from earlier work
T. b. brucei [2] = conditions: cited from earlier work; for T.b.b. pEC50: data from original HTS, ref [13]
[3] = test system: S. mansoni adults and somules; test: S. mansoni phenotypic assay, adults and somules (severity score); assay type: cell-based, Schistosoma mansoni (NMRI isolate); conditions: for Adult severity score (10 μM): adults; for Adult severity score (10 μM) / Somule severity score (10 μM): score 0-4; for Somule severity score (10 μM): somules
Description: Maintenance of the Schistosoma mansoni life cycle, preparation of somules (post-infective larvae) and adult worms (≥42-days-old), and co-incubation of these stages with test compounds were as described. An NMRI isolate of S. mansoni was used for all whole-organism screens.
Somules (40 units/well/96w round-bottomed plate) or adults (five paris/well/24w plate) were cultured in the presence of compounds at 10 µM and phenotypic changes observed as a function of time using an Zeiss Axiovert A1 inverted microscope (Table S4). A constrained nomenclature was used to describe the effects of compounds on parasites (changes in shape, motility and density). To generate a partially quantitative output for comparing drug effects, each descriptor was awarded a score of 1 and these were summed to a maximum score of 4 [7-10]: evidence of degeneracy or death was awarded the maximum score of 4. For adults specifically, damage to the tegument (outer surface) was also awarded a score of 4 based on the indication that damage to the patrasite’s surface is lethal in vivo [11]. Assays were performed twice and representative data are shown.

T. cruzi = test: β-D-Galactosidase transgenic T. cruzi assay (amastigote-infected L6 cells); assay type: cell-based, T. cruzi Tulahuen C4 strain; conditions: 96 h; for EC50: Trypanosoma cruzi, read-out: T. cruzi pEC50 (converted)
Description: The T. cruzi Tulahuen C4 strain, expressing the β-galactosidase gene (LacZ) and L6 rat skeletal muscle cells, used as host cells, were cultured in RPMI-1640 supplemented with 10% iFBS, 2 mM L-glutamine, 100 U/mL penicillin, and 100 μg/mL streptomycin at 37 °C and 5% CO2.
A Thermo Scientific Multidrop Combi dispenser (MTX Lab Systems, Vienna, VA) was used to dispense 90 μL of T. cruzi amastigote–infected L6 cell culture (4×10^3 infected L6 cells per well) into 96-well Corning assay plates (Corning Inc., Corning, NY) already containing 10 μL of the compounds to be screened and controls. The plates were incubated at 37 °C for 96 h. Then, 30 μL of 100 μM CPRG and 0.1% NP40 diluted in PBS were added to each well, and the plates were incubated for 4 h at 37 °C in the dark. Absorbance at 585 nm was measured in a Vmax kinetic microplate reader ([…]). Compound activities were normalized using the in-plate negative (benznidazole at 10 μg/mL) and positive (0.2% DMSO) growth controls.

L. donovani = test: EC50 in L. donovani (infected THP-1 macrophages, luciferase); assay type: cell-based, Leishmania donovani MHOM/ET/67/HU3; conditions: 72 h; for EC50: Leishmania donovani, read-out: L. donovani pEC50 (converted)
Description: Leishmania donovani MHOM/ET/67/HU3 cells with the luciferase gene integrated into the parasite genome[1] were grown at 28 °C in RPMI 1640-modified medium (Invitrogen) supplemented with 20% FBS with […] of hygromycin B.
The Human myelomonocytic cell line THP-1 was grown at 37 °C and 5% CO2 in RPMI-1640 supplemented with 10% iFBS, 2 mM […], 100 U/mL penicillin and […] streptomycin. 3 x 10^4 THP-1 cells per well in 96-well plates were differentiated to macrophages with 20 ng/mL of PMA treatment for 48 h followed by 24 h of culture in fresh medium.
Macrophage-differentiated THP-1 cells were infected at a macrophage/parasite ratio of 1/10 with stationary L. donovani promastigotes for 24 h at 35 °C and 5% CO2, and extracellular parasites were removed by washing with PBS. Infected cell cultures were then incubated with different compounds concentrations at 37 °C for 72 h. Luminescence was measured using the Promega kit luciferase assay system (Promega, Madison, WI). Assays were performed in duplicate at least twice, to achieve a minimal n=3 per dose response.

[4] = Shake-flask octanol-water Log D7.4; assay type: physicochemical; conditions: pH 7.4, octanol-water shake-flask
Description: Shake-flask octanol-water distribution coefficient at pH 7.4 (Log D7.4). The aqueous solution used is 10 mM sodium phosphate pH 7.4 buffer. The method has been validated for Log D7.4 ranging from -2 to 5.0.

T. b. brucei [5] = test: T. b. brucei growth inhibition EC50 assay (resazurin, 72 h); assay type: cell-based, Trypanosoma brucei brucei Lister 427
Description: Mid-log phase growth T. b. brucei was diluted to a working cell density of 2,750 cells/mL and 90 μL/well dispensed into 96-well flat-bottom transparent assay plates (Nunc). Ten μL/well from intermediate plates were added. The final top concentration of compounds was 40 μM in 0.4% DMSO per well.
Assay plates were incubated for 72 h at 37°C and 5% CO2. Four hours prior to the end of the incubation, 20 μL of a 440 μM resazurin solution in prewarmed HMI-9 was added to each well and incubated for another 4 h. Fluorescence was then measured in an Infinite F200 plate reader (Tecan) at 550 nm (excitation filter) and 590 nm (emission filter). A 4-parameter equation was employed to fit the dose-response curves and determine of EC50 using the SigmaPlot 13.0 software. Assays were performed in duplicate at least twice, to achieve a minimal n = 3 per dose response.
Bloodstream Trypanosoma brucei brucei Lister 427 was cultured in Hirumi’s modified Iscove’s medium (HMI-9), supplemented with 10% heat-inactivated FBS, at 37 °C and 5% CO2 in T-25 vented flask (Corning®).
For dose-response experiments, compound plates were prepared for each analogue by serial 3-fold dilutions in 100% DMSO. Five concentration points (mammalian cytotoxicity) or ten concentration points (parasite growth inhibition), were made in 96-well transparent Nunclon plates. Pentamidine is routinely included in compound plates as internal quality control, and plates are stored sealed at -20 °C for no more than four weeks.

[6] = Human plasma protein binding (equilibrium dialysis); assay type: in vitro ADME
Description: PPB is determined using equilibrium dialysis (RED device) to separate free from bound compound. The amount of compound in plasma (10 µM initial concentration) and in dialysis buffer (pH 7.4 phosphate buffer) is measured by LC-MS/MS after equilibration at 37 °C in a dialysis chamber. The fraction unbound (fu) is reported.

[7] = Human liver microsomal CLint; assay type: in vitro ADME; conditions: human liver microsomes
Description: In vitro intrinsic clearance determined from human liver microsomes using a standard approach. Following incubation and preparation, the samples are analyzed using LC/MS/MS.

[8] = Aqueous pH 7.4 solubility; assay type: physicochemical; conditions: aqueous buffer, thermodynamic from solid; pH 7.4 phosphate buffer, 25 °C, 20-24 h; read-out: Aq. Solubility
Description: Compounds are dried down from 10 mM DMSO solutions using centrifugal evaporation technique. Phosphate buffer (0.1 M pH 7.4) added and StirStix inserted in the glass vials, shaking is then performed at a constant temperature of 25 °C for 20-24 h. This step is followed by double centrifugation with a tip wash in between, to ensure that no residues of the dried compound are interfering. The solutions are diluted before analysis and quantification using LC/MS/MS is performed.

MRC5-SV2 cell line [9] = test: Cytotoxicity assay in MRC5 (resazurin, 48 h); assay type: cell-based, human; conditions: MRC5 toxicity
Description: For dose-response experiments, compound plates were prepared for each analogue by serial 3-fold dilutions in 100% DMSO. Five concentration points (mammalian cytotoxicity) or ten concentration points (parasite growth inhibition), were made in 96-well transparent Nunclon plates. Pentamidine is routinely included in compound plates as internal quality control, and plates are stored sealed at -20 °C for no more than four weeks. Intermediate plates were made as described, adding 95 μL of DMEM complete media to 5 μL of compound per well setting a 5% DMSO amount. Log-phase MRC5 cells were removed from a T-75 TC flask using TrypLE® Express (Thermo®) and dispersed by gentle pipetting. Cell density was adjusted to working concentration in prewarmed DMEM medium: 25,000 cells in 90 μL of culture were plated in 96-well transparent Nunclon plates and let to settle for 24 h at 37 °C and 5% CO2. After settling incubation, 10 μL of fresh made intermediate plate were added per well: final maximal concentration for compounds was 50 μM in 0.5% DMSO per well. […] Fluorescence was read in an Infinite F200 plate reader (Tecan®) at 550 nm (excitation filter) and 590 nm (emission filter). A 4-parameter equation was used to fit the dose-response curves and determination of EC50 by SigmaPlot ® 13.0 software. Assays were performed in duplicate at least twice for positive compounds, to achieve a minimal n=3 per dose response.

MRC5-SV2 cell line [10] = conditions: printed in Fig 4; ref [16]; cited from earlier work
Rat hepatocyte CLint = assay type: in vitro ADME; conditions: rat hepatocytes
Description: In vitro intrinsic clearance determined from rat hepatocytes using a standard approach. Following incubation and preparation, the samples are analyzed using LC/MS/MS.

| Compound | Kinetic aq. solubility [1] | T.b.b. pEC50 (T. b. brucei [2]) | Adult severity score (10 μM) ([3]; 3h) | Adult severity score (10 μM) ([3]; 6h) | Adult severity score (10 μM) ([3]; 24h) | Adult severity score (10 μM) ([3]; 48h) | Somule severity score (10 μM) ([3]; 24h) | Somule severity score (10 μM) ([3]; 48h) | EC50 (T. cruzi) | EC50 (L. donovani) | MRC5 pTC50 (MRC5-SV2 cell line [9]) | other results |
| --- | --- | --- | --- | --- | --- | --- | --- | --- | --- | --- | --- | --- |
| NS(=O)(=O)c1ccc(N/N=C2\C(=O)Nc3ccc4ncccc4c32)cc1 [NEU-1184] | 7.7 µM | 7.1 | – | – | – | – | – | – | – | – | – | – |
| CC(C)=Cc1cccc2c1C(=NNc1ccc(S(N)(=O)=O)cc1)C(=O)N2 [NEU-1183] | <5 µM | 7.6 | 2 | 2 | 2 | 2 | 1 | 4 | 0.724 µM | > 5.01 µM | – | activity against S. mansoni adults and/or somules ([3]; 10 μM): moderate and variable activity |
| O=C1Nc2ccccc2C1=NNc1ccccc1 [NEU-2116, (Z)-3-(2-Phenylhydrazono)indolin-2-one] | – | – | 0 | 0 | 0 | 1 | 0 | 0 | > 10 µM | > 10 µM | <4.3 | logD [4]: > 3.8; EC50 (T. b. brucei [5]; Trypanosoma brucei, 72 h, read-out: T.b.b. pEC50 (converted)): 12.6 µM; fraction unbound at 10 µM ([6]; pH 7.4, read-out: PPB (converted)): < 0.02; microsomal CLint ([7]; read-out: HLM Clint): 184 µL/min/mg; solubility [8]: < 2 µM |
| NS(=O)(=O)c1ccc(N/N=C2\C(=O)Nc3ccc(-c4cnco4)cc32)cc1 [NEU-1185] | 18 µM | 6.4 | – | – | – | – | – | – | – | – | – | – |
| CCS(=O)(=O)Nc1ccc2c(c1)/C(=C(/Nc1ccc(CN3CCCCC3)cc1)c1ccccc1)C(=O)N2 [Hesperadin, reference compound] | – | – | – | – | – | – | – | – | – | – | – | T.b.brucei pEC50 (T. b. brucei [2]; printed in Fig 4, ref [16]): 7.22; MRC5 pTC50 (MRC5-SV2 cell line [10]): 6.69 |
| (Z)-3-(2-(4-((Piperidin-1-ylmethyl)sulfonyl)phenyl)hydrazineylidene)indolin-2-one [NEU-4893] | – | – | – | – | – | – | – | – | – | – | <4.3 | LogD (7.4) [4]: 2.2; T. cruzi pEC50 (T. cruzi): <4.70; Rat Hepatocyte Clint (Rat hepatocyte CLint): 148 µL/min/10^6 cells; activity against T. brucei (T. b. brucei [5]): inactive; T.b.b. pEC50 (T. b. brucei [5]; 72 h, resazurin, error within ±0.20 (Table 2) or ±0.08 (Table 3) log units): 5.0; PPB ([6]; 10 µM): 90%; L. donovani pEC50 (L. donovani): <5.30; HLM Clint [7]: <3 µL/min/mg |
